pIC50: −log10 of the molar value.
What was measured:
[1] = target: T1, human placental topoisomerase I (Homo sapiens, UniProt P11387); assay: Inhibition of topoisomerase I catalytic activity (relaxation of supercoiled SV40 DNA); assay type: biochemical; settings: for relaxation of supercoiled DNA: FIG. 18 / FIG. 19, in words; for topoisomerase I inhibitory activity: comparison in words, vs camptothecin; for topoisomerase I inhibition: highest concentration tested (100 μg/mL), in words
T1 construct: purchased TopoGen; host or cells: human placenta
T1 sequence (P11387 1-765): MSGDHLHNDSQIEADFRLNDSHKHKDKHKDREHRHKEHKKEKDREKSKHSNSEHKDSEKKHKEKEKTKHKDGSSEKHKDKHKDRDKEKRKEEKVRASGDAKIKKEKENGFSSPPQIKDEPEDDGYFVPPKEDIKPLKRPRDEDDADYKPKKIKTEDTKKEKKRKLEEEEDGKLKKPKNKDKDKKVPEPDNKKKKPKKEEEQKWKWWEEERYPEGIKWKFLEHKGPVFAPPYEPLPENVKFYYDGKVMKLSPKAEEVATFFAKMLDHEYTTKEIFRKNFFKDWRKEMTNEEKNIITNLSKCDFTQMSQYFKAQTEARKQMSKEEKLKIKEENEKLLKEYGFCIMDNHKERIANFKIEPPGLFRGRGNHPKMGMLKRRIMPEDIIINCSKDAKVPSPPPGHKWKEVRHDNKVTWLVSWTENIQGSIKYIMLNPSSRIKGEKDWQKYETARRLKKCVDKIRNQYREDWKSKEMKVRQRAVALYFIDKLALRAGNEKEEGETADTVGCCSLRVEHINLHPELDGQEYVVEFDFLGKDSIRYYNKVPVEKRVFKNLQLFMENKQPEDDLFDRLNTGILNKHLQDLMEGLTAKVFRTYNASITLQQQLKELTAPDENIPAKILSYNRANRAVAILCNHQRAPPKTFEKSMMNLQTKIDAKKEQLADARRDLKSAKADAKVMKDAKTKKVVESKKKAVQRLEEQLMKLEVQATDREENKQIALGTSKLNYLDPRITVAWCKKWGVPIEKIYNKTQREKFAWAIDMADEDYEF
Method: The topoisomerase I catalytic activity was measured by converting the supercoiled SV40 DNA (Form I) to the relaxed form (Form Io). All reactions were performed in 20 μL reaction buffer (Tris-HCl, 10 mM, pH 7.5; EDTA, 1 mM; NaCl, 100 mM) with 0.25 μg SV40 DNA, 0.5 unit of human placental topoisomerase I (TopoGen) and graded concentrations of the analog tested. The reaction mixtures were incubated at 37° C. for 30 minutes. […] Ten μL of the reaction mixture was loaded onto a 1% agarose gel prepared in TAE buffer containing 2 μg/mL chloroquine; and the electrophoresis was performed at 82 volt for 4.5 hr in the TAE buffer containing 2 μg/mL chloroquine. […] The gels were then stained with 0.5 μg/mL ethidium bromide solution for 30 min or longer (if chloroquine is present during the electrophoresis step), and destained with 5 changes of deionized water. […] The DNA bands (image) on the negative were densitometrically scanned with a Molecular Dynamic Personal Densitometer. The percent inhibition of Toposiomerase I activity is calculated based on the following equation:
% Inhibition=(FSC(E+D) -FSC(E))/(FSC(C)
where FSC(E+D) represents fraction of supercoiled DNA in the presence of enzyme and drug; FSC(E) represents fraction of supercoiled DNA in the presence of enzyme alone; FSC(C) represents fraction of supercoiled DNA in the untreated SV40 DNA; the IC50 value was estimated using the same four-parameter logistic equation described in the in vitro growth inhibition studies.

[2] = Murine B16 melanoma model in vivo; set-up: species or system mouse (B6D2F1); settings: mouse, in vivo, ip; i.p. daily×5
Method: 1) Murine B16 Melanoma Model
For the B16 melanoma model, the following procedure was used. B6D2F1 mice receive i.p. inocula of B16 murine melanoma brei prepared from B16 tumors growing s.c. in mice (day 0). […] If dosing information for agents is not available, the maximum tolerated dose (MTD) is determined in initial dose finding experiments in non-tumored mice.
The mean survival times of all groups are calculated, and results are expressed as mean survival of treated mice/mean survival of control mice (T/C)×100%. A T/C value of 150 means that the mice in the treated group lived 50% longer than those of the control group; this is sometimes referred to as the increase in life span or ILS value.
Mice that survive for 60 days are considered long-term survivors, or cures, in the B16 model. The universally accepted cut-off for activity in this model, which has been for years by the National Cancer Institute, is T/C=125. Conventional use of B16 over the years has set the following levels of activity: T/C<125, no activity, T/C=125-150, weak activity; T/C=150-200, modest activity; T/C=200-300, high activity; T/C>300, with long term survivors; excellent, curative activity.

in vivo = settings: mouse, in vivo, ip
From the text: For all the models, the vehicle used to deliver the analog of interest was isotonic saline.
For the MX-1 human breast tumor xenograft models, the following procedure was used. Nude mice are implanted s.c. by trocar with fragments of MX-1 mammary carcinomas harvested from s.c. growing MX-1 tumors in nude mice hosts. When tumors are approximately 5 mm×5 mm in size (usually about ten days after inoculation), the animals are pair-matched into treatment and control groups. Each group contains ten tumored mice, each of which is ear-tagged and followed individually throughout the experiment. The administration of drugs or vehicle begins the day the animals are pair-matched (day 1). The doses, route of drug administration and schedule are selected as appropriate for the study in question. If the MTD dose of an agent is not known, it is determined in an initial dosing experiment in non-tumored mice. In a typical experiment, drugs are given at their MTD and 1/2 MTD doses i.p. on a daily×5 schedule.
The experiment is usually terminated when control tumors reach a size of 2-3 g. Mice are weighed twice weekly, and tumor measurements are taken by calipers twice weekly, starting on day 1. These tumor measurements are converted to mg tumor weight by a well known formula, and from these calculated tumor weights the termination date can be determined. Upon termination, all mice are weighed, sacrificed, and their tumors excised. Tumors are weighed, and the mean tumor weight per group is calculated.
Some drugs cause tumor shrinkage in the MX-1 model. With these agents, the final weight of a given tumor is subtracted from its own weight at the start of the treatment on day 1. This difference divided by the initial tumor weight is the % shrinkage. A mean % tumor shrinkage can be calculated from data from the mice in a group that experienced MX-1 regressions. If the tumor completely disappears in a mouse, this is considered a complete regression or complete tumor shrinkage. If desired, mice with partial or total tumor regressions can be kept alive past the termination date to see whether they live to become long term, tumor-free survivors.
Note that in the following table the abbreviation SR refers to tumor shrinkage rate, while those entries followed by a superscripted `2` are tumor growth inhibition rates, not tumor shrinkage rates.

| Structure (SMILES) | pIC50 [1] | relaxation of supercoiled DNA [1] | topoisomerase I inhibitory activity [1] | MTD [2] [mg/kg] | MTD (in vivo) [mg/kg] | topoisomerase I inhibition [1] | topoisomerase I inhibition relative to HAR4 ([1]; more inhibitory than HAR4) [times] |
| --- | --- | --- | --- | --- | --- | --- | --- |
| CC[C@@]1(O)C(=O)OCc2c1cc1n(c2=O)Cc2c-1nc1ccccc1c2CO[C@@H]1C=C[C@H](OC(C)=O)[C@@H](COC(C)=O)O1 [HAR4, 7-[4,6-di-O-acetyl-2,3-dideoxy-α-D-erythro-hex-2-enopyranosyl]oxymethylcamptothecin] | 4.37 | inhibition of relaxation of supercoiled DNA | quite similar to those of camptothecin | 20 | 10 | – | – |
| CC[C@@]1(O)C(=O)OCc2c1cc1n(c2=O)Cc2c-1nc1ccccc1c2CO[C@@H]1C=C[C@H](O[C@H]2O[C@H](COC(C)=O)[C@@H](OC(C)=O)[C@H](OC(C)=O)[C@H]2OC(C)=O)[C@@H](COC(C)=O)O1 [HAR5, 7-[6-O-acetyl-4-O-(2,3,4,6-tetra-O-acetyl-α-D-glucopyranosyl)-2,3-dideoxy-α-D-erythro-hex-2-enopyranosyl]oxymethylcamptothecin] | < 3.94 | inhibition of relaxation of supercoiled DNA | – | – | – | moderately inhibited topoisomerase I activity | – |
| CC[C@@]1(O)C(=O)OCc2c1cc1n(c2=O)Cc2c-1nc1ccccc1c2CO[C@@H]1C=C[C@H](O[C@H]2O[C@H](CO)[C@@H](O)[C@H](O)[C@H]2O)[C@@H](CO)O1 [HAR6, 7-[4-O-(α-D-glucopyranosyl)-2,3-dideoxy-α-D-erythro-hex-2-enopyranosyl]-oxymethylcamptothecin] | < 3.83 | inhibition of relaxation of supercoiled DNA | – | 100 | 100 | moderately inhibited topoisomerase I activity | – |
| CC[C@@]1(O)C(=O)OCc2c1cc1n(c2=O)Cc2c-1nc1ccccc1c2CO[C@@H]1C=C[C@H](O)[C@@H](CO)O1 [HAR7, 7-[2,3-dideoxy-α-D-erythro-hex-2-enopyranosyl]-oxymethylcamptothecin] | 5.40 | inhibition of relaxation of supercoiled DNA | quite similar to those of camptothecin | – | – | – | 10 |

Source: patent publication US5932709A (University of Michigan, priority 1997, dated 1999)
